Data on 59 molecules can be found in the METLIN SMRT retention time set (Domingo-Almenara et al. 2019).

The data set in a line: gradient 5% acetonitrile 3 min, to 50% in 2 min, to 85% in 15 min, held 3 min, 100 µL/min. The following applies: column: Zorbax Extend-C18 2.1 x 50 mm; eluents: water / acetonitrile, 0.1% formic acid. The gist of the method:
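Pure standards were analyzed in mixtures of ~100 molecules using HPLC coupled to a quadrupole time-of-flight mass spectrometer, in both positive and negative ionization mode. Separation used a Zorbax Extend-C18 column (2.1 × 50 mm, 1.8 μm) at 100 μL/min, with water and acetonitrile each containing 0.1% formic acid. Dead and dwell volumes were 40 μL and 900 μL, and data were collected over 3 months. Retention time was read from computationally picked adduct peaks, each inspected manually.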
In turn, `Cc1ccn2cc(C(=O)NCc3ccccc3C)nc2c1` came in with an RP-LC retention time of 708 s.

`CCOc1ccc(NC(=O)c2cc(=O)c3cc(CC)ccc3o2)c2cccnc12` returned an RP-LC retention time of 693 s.

On to `O=C(c1ccncc1)N1CCC(n2c(-c3ccco3)nc3cccnc32)C1` (centres undefined), for which the RP-LC retention time came out at 689 s.

Regarding `O=C(NC1CCCC1)C1CCN(c2nc3ccc(-c4cccnc4)nc3s2)CC1`, the RP-LC retention time stood at 654 s.

Turning to `Cc1nc(-c2ccccc2)cc2nn(CC(=O)Nc3ccccc3Cl)c(=O)n12`, the RP-LC retention time stood at 966 s.

`COCc1cc(=O)n(CC(=O)Nc2cc(F)ccc2F)c(N2CCOCC2)n1` came in with an RP-LC retention time of 838 s.

In the case of `Cn1c(C2CCN(C(=O)c3ccc(Cl)cc3)C2)nc2ccncc21` (centres undefined), the RP-LC retention time came to 540 s.

Turning to `Cc1ccc(NC(=O)N2CCCC(C)(C(=O)NCc3ccccc3)C2)cc1Cl` (centres undefined), the RP-LC retention time worked out at 995 s.

In the case of `Cc1ccc(S(=O)(=O)c2cnc(N3CCN(c4ccccc4)CC3)nc2N)cc1C`, the RP-LC retention time worked out at 1110 s.

The molecule `CCc1ccccc1NC(=O)Cn1cnc2nc(N3CCCC(C(=O)NC(C)C)C3)sc2c1=O` (centres undefined) registered an RP-LC retention time of 759 s.

Consider `CCn1c(=O)c(SCC(=O)NCCCN2CCCCC2C)nc2ccccc21` (centres undefined), for which the RP-LC retention time came to 602 s.

The molecule `O=C(NCCC1=CCCCC1)C(=O)NCC1OCCCN1S(=O)(=O)c1ccccc1` (centres undefined) yielded an RP-LC retention time of 911 s.

`COc1ccc(-c2nc(-c3ccc(-n4ccnc4)nc3)no2)c(OC)c1` displayed an RP-LC retention time of 698 s.

`COCCCNC(=O)c1cc(-c2ccc(F)cc2)c[nH]1` registered an RP-LC retention time of 726 s.

The molecule `O=C(NCc1nc(-c2ccc(NS(=O)(=O)c3cccs3)cc2)no1)c1ccccc1` registered an RP-LC retention time of 848 s.

Molecule `COc1ccc(N2CCN(c3cc(SCC(=O)NCc4ccc(SC)cc4)ncn3)CC2)cc1` had an RP-LC retention time of 897 s.

On to `CC(=O)N1CCc2sc(S(=O)(=O)N3CCN(c4ccccc4)CC3)cc2C1`, for which the RP-LC retention time was determined as 884 s.

`CCCN(C)c1nccnc1OC1CCN(C(=O)C2CCC2)C1` (centres undefined) gave an RP-LC retention time of 765 s.

`CCSc1nccc2c1ccn2CC(=O)NCc1ccc(Br)cc1` displayed an RP-LC retention time of 681 s.

The molecule `CCc1nn2c(S(=O)(=O)NC3CCCC3)c(C)nc2s1` had an RP-LC retention time of 799 s.

`Cc1cc(C2CCCN2C(=O)c2cc(F)c(F)cc2Cl)no1` (centres undefined) came in with an RP-LC retention time of 832 s.

`CCCNc1cc(N2CCC(CCC(=O)NCc3ccc(C)cc3)CC2)ncn1`: the RP-LC retention time amounted to 716 s.

`NC(=O)C1CCN(C(=O)c2nnn(-c3ccc(Cl)cc3)c2-c2cccnc2)CC1` showed an RP-LC retention time of 633 s.

`O=C(Cn1cccc(-c2nc(-c3ccc(Cl)cc3)no2)c1=O)Nc1ccc(F)cc1F` gave an RP-LC retention time of 971 s.

`COC(=O)c1ccc(NC(=O)N2CCCC2c2ccc(OC)cc2)cc1` (centres undefined) returned an RP-LC retention time of 906 s.

For `O=S(=O)(c1ccc(-c2noc(-c3cccc(Cl)c3)n2)cc1)N1CCOCC1`, the RP-LC retention time worked out at 1170 s.

As to `COc1ccc(C2Cn3cnc(C(=O)N4CCC(C(=O)NC5CCCC5)CC4)c3CO2)cc1` (centres undefined), the RP-LC retention time worked out at 705 s.

Regarding `O=S(=O)(Cc1ccccc1)N1CCN(Cc2cccc(F)c2)C2(CCOCC2)C1`, the RP-LC retention time stood at 745 s.

For the molecule `CCc1noc(-c2ccnc(-n3ncc(C(=O)NCC(C)C)c3C)c2)n1`, the RP-LC retention time stood at 931 s.

`O=c1c2scc(-c3cccc(F)c3)c2ncn1Cc1ccc(Br)cc1`: the RP-LC retention time amounted to 1170 s.

The molecule `CCN1C(=O)C(C)(C(=O)NCc2ccccc2)Oc2cccnc21` (centres undefined) came in with an RP-LC retention time of 812 s.

For the molecule `CCOc1ccc(CNC(=O)C2=Cc3cc(OC)ccc3OC2)cc1OC`, the RP-LC retention time was found to be 861 s.

Molecule `CCOC(=O)c1[nH]c(C)c(CN(Cc2ccco2)C(=O)Nc2ccccc2)c1C` had an RP-LC retention time of 957 s.

With `COc1cccc(S(=O)(=O)N2CCOCCNC(=O)[C@@H]3CCC[C@@H]32)c1`, the RP-LC retention time was 740 s.

Consider `CC(=O)c1ccc(OCC(O)CN2CCN(Cc3ccc(Cl)cc3)CC2)cc1` (centres undefined), for which the RP-LC retention time was 574 s.

Regarding `Cc1ccc(NS(=O)(=O)c2ccc(-c3c(C)noc3C)cc2)c(C)c1`, the RP-LC retention time came to 985 s.

Molecule `O=C1CC(c2cc(F)cc(F)c2)Cc2nc(N3CCN(c4ccccc4F)CC3)ncc21` (centres undefined) registered an RP-LC retention time of 1300 s.

In the case of `CCNC(=O)C1CCc2sc(C(=O)N3CCCCC3)cc2C1` (centres undefined), the RP-LC retention time worked out at 694 s.

`CCC(C)NC(=O)c1ccc(-c2nnc3ccc(NC(=O)C4CC4)cn23)cc1` (centres undefined) showed an RP-LC retention time of 718 s.

Molecule `COc1ccc(-c2ccc(SCC(=O)Nc3cccc([N+](=O)[O-])c3)nn2)cc1OC` displayed an RP-LC retention time of 793 s.

Take `Cc1noc(C)c1CCNC(=O)c1cc(-c2cccnc2)nc2ccccc12`: the RP-LC retention time was 652 s.

As for `O=C(c1cn(CC(O)c2ccccc2)nn1)N1CCN(c2ccccn2)CC1` (centres undefined), the RP-LC retention time was determined as 544 s.

Turning to `Cc1ccc(S(=O)(=O)c2cnc(N3CCN(Cc4ccc5c(c4)OCO5)CC3)nc2N)cc1`, the RP-LC retention time worked out at 679 s.

`CCOc1ccc(NC(=O)C2CCN(c3cncnc3N3CCOCC3)CC2)cc1` showed an RP-LC retention time of 651 s.

Consider `COc1ccccc1NC(=O)NC1CCN(c2ccc(F)c(C)c2)C1=O` (centres undefined), for which the RP-LC retention time was 833 s.

`O=C(Cn1cnc2c(sc3nc(-c4ccccc4)ccc32)c1=O)Nc1ccc(F)c(F)c1` showed an RP-LC retention time of 1040 s.

The molecule `COCCN1C(=O)CCc2cc(NC(=O)c3ccco3)ccc21` returned an RP-LC retention time of 654 s.

The molecule `COc1cc(NC(=O)c2cc(C(C)(C)C)n3nccc3n2)cc(OC)c1` had an RP-LC retention time of 721 s.

Turning to `Cc1nn(-c2ccccc2)c(C)c1S(=O)(=O)N1CCC(C(=O)Nc2ccccc2)CC1`, the RP-LC retention time came out at 926 s.

In the case of `CCc1ccc(-c2noc(-c3nnn(Cc4nc(-c5ccccc5OC)oc4C)c3C)n2)cc1`, the RP-LC retention time was determined as 1270 s.

In the case of `CC(C)(C)N(C(=O)c1ccccc1[N+](=O)[O-])C(=O)N1CCCCC1`, the RP-LC retention time is 828 s.

For `CCn1cc(-c2nc(C)c(C(=O)NCc3cccs3)s2)c2cccnc21`, the RP-LC retention time was found to be 926 s.

`Cc1nc(-c2cnccn2)nc2c1CCC(=O)N2Cc1cccc(F)c1` yielded an RP-LC retention time of 733 s.

As to `COc1ccccc1CNC(=O)c1ccc2ncnc(N3CCCC3)c2c1`, the RP-LC retention time is 640 s.

`CCCS(=O)(=O)N1CCCC(c2nnc(-c3cccs3)o2)C1` (centres undefined) gave an RP-LC retention time of 749 s.

Take `COCCN1C(=O)c2ccccc2C(C(=O)NCc2ccccc2F)C12CCCCC2` (centres undefined): the RP-LC retention time is 877 s.

On to `Cc1ccc(N2CC(c3nc(-c4ccc5c(c4)OCO5)no3)CC2=O)cc1C` (centres undefined), for which the RP-LC retention time is 911 s.

Consider `C=CCNC(=O)c1ccc2[nH]c(C)c(C)c2c1`, for which the RP-LC retention time came to 568 s.

In the case of `CCN1C(=O)c2cccnc2Sc2cc(NC(=O)c3cccc(C(F)(F)F)c3)ccc21`, the RP-LC retention time came out at 957 s.
